Results taken from US10183079B2, “Hydrogel microspheres containing peptide ligands for growth factor regulation in blood products” (Wisconsin Alumni Research Foundation, priority 2016, dated 2019).
Square brackets hold non-standard residues; d marks the D form. Primed or numbered codes have the meaning given here. Ends that are not written are not given here. PEG27′ = polyethylene glycol 27 spacer; βAla = NCCC(=O)O

Tests used:
[1] = system: choroidal neovascularization; experiment: Mouse choroidal neovascularization model; type: in vivo; details: 2 μL/eye
Description: Microspheres (generated via sonication) were sanitized either by washing in 70% ethanol or by exposing to UV for 30 minutes prior to injection. Microspheres (F-VBP, F-Scramble, N-VBP, and N-Scramble) were suspended at 2 mg/mL in sterile PBS on the day of experiments. Soluble VBP or Scramble peptide (purchased from GenScript) were dissolved, sterile filtered through 0.2 μm filter, and diluted to 20 μg/mL in sterile PBS before experiments. SU4312 (Sigma) was dissolved in DMSO at 5 μg/mL, and Eylea (Regeneron Pharmaceuticals) was dissolved in PBS at 40 μg/mL and sterile filtered through 0.2 μm filter.
The mouse choroidal neovascularization model was generated as described in FIG. 8A. Briefly, C57BL/6J mice (Jackson Laboratories; 6-weeks old female) eyes were dilated using a drop of tropicamide (1%), and mice were anesthetized with ketamine and xylazine. Mice were subjected to photocoagulation (75 μm spot size, 0.1 s duration, 120 mW) at the 3-, 9-, and 12-o'clock positions of the posterior pole of the eye using an OcuLight GL diode laser (Iridex) with a glass coverslip over the eye. Microspheres were injected into each eye (2 μL/eye) using a pump microinjection apparatus (Harvard Apparatus) or Hamilton syringe. […] The area of ICAM-2+ staining (defined as mean CNV area) at each position (3-, 9-, and 12-o'clock) was quantified using Fiji and automated image thresholding. […]

iPSC-EC = iPSC-EC proliferation, xCELLigence cell index; type: cell-based; details: 5 ng/mL VEGF, 48-hour culture; for iPSC-EC proliferation (cell index): soluble peptide
Description: Soluble branched VBP containing a PEG-27 spacer (C{βA}K({βA}{PEG-27}KSAPYEWNFDI{Ld}{Yd}{Ad}{Fd}E)2 (SEQ ID NO:10) was synthesized as described above using fmoc solid-phase peptide synthesis, wherein each amino acid after the branch point was added at 8 molar excess relative to the resin free amines with a corresponding 8 molar excess of DIPEA and 4 molar excess of HBTU during the coupling reaction. Peptide purity was assessed using reverse-phase high performance liquid chromatograph, and peptide identity was assessed using matrix-assisted laser desorption time-of-flight spectrometry. Peptide content was assessed using Ellman's assay for free thiol, and both soluble branched VBP2, PEG-27 and VBP2,a were dissolved in PBS for use in cell culture assay. The influence of soluble branched peptides on iPSC-EC proliferation was established using ACEA xCELLigence RTCA-DP. iPSC-EC used in this Example were cultured in iCell-EC Growth Medium (as described in Example 1 above), were passaged using TrypLE, and were used between passage 4-8 for experiments. E-plates (containing gold electrodes on the bottom of each well) were first coated with Fibronectin (Corning) and were seeded with iPSC-EC at a density of 6000 cells/cm^2. Seeded E-plates were cultured on RTCA-DP overnight in Growth Medium, and on the day of experiments, medium was removed and replaced with medium containing 0.1 vol % supplement (CDI) in VascuLife (LifeLine) and L-glutamine (LifeLine) and containing 5 ng/mL VEGF (LifeLine) and the specified concentrations of either VBP2, PEG-27 or VBP2,a. iPSC-EC proliferation was assessed by monitoring the cell index (indicating cell coverage over the gold-coated wells) over a 48-hour period in culture, and at the end of the 48-hour culture, cell indices were averaged for two replicate wells per condition. Statistical analysis at the end of the experiment was performed using two-way analysis of variance (ANOVA) and Tukey's post-hoc test for α=0.05.

Cc1cc(C)c(/C=C2\C(=O)Nc3ccccc32)[nH]1 [SU5416]
mean CNV area, small-molecule inhibitor ([1]; 5 μg/mL in DMSO, vehicle control): inhibit angiogenesis in this model

(E{Fd}{Ad}{Yd}{Ld}IDFNWEYPASK)2KC (E[dF][dA][dY][dL]IDFNWEYPASKE[dF][dA][dY][dL]IDFNWEYPASKKC-NH2; also: branched dimer: two arms on K33) [VBP2,a]
iPSC-EC proliferation (cell index) at 5 μM (iPSC-EC; 5 μM soluble peptide): inhibited proliferation at a much greater extent than the VBP2, PEG27 | iPSC-EC proliferation (cell index) (iPSC-EC): inhibited iPSC-EC proliferation in culture with VEGF

C{βA}K({βA}{PEG-27}KSAPYEWNFDI{Ld}{Yd}{Ad}{Fd}E)2 (C[βAla]K[βAla][PEG27′]KSAPYEWNFDI[dL][dY][dA][dF]E[βAla][PEG27′]KSAPYEWNFDI[dL][dY][dA][dF]E; not fully specified (C-terminus); numbers in words are those of the source; also: branched dimer: two arms on K3) [VBP2, PEG27]
iPSC-EC proliferation (cell index) (iPSC-EC): inhibited iPSC-EC proliferation in culture with VEGF

Eylea: commercial anti-angiogenesis compound (Regeneron Pharmaceuticals), soluble VEGF inhibitor protein
mean CNV area, Eylea ([1]; 40 μg/mL, control IgG): inhibit angiogenesis in this model
